Laboratory results: patent publication US5456247A, “Method for delivering drugs soluble in a vaporization vehicle” (priority 1993, dated 1995)
Read-outs that look alike come from different tables or passages of the source.

Key:
[1] = in vivo; details: rat, inhaled or intranasal
Method: Tests were conducted to study the entry of sulfa drugs into the blood and lungs of test subjects. […] Rats were placed in the treatment chamber 9. […] An air pump was used to circulate air through the volatile chamber 10 to the treatment chamber. The rats' condition, temperature of the flask and vapor flow into the treatment chamber 9 were monitored. After three minutes of inhalation therapy the air flow was shut off and the rats were removed from treatment chamber 9. Blood and lung tissue were removed for testing.

[2] = rat, in vivo, inhaled or intranasal, 0.05 h
Method: Tests were conducted to study the entry of sulfa drugs into the blood and lungs of test subjects. […] Samples of sulfamethazine and menthol (0.285 grams equal portions of each) were weighed and heated at 180° C. in a distillation flask in the volatile chamber. Rats were placed in the treatment chamber 9. […] An air pump was used to circulate air through the volatile chamber 10 to the treatment chamber. The rats' condition, temperature of the flask and vapor flow into the treatment chamber 9 were monitored. After three minutes of inhalation therapy the air flow was shut off and the rats were removed from treatment chamber 9. Blood and lung tissue were removed for testing.

[3] = in vivo; details: inhaled or intranasal
Method: (§1) The levels that were taken orally were administered for a period of time on the order of days, while inhalation treatments were for a period of time on the order of minutes in length (five minutes).

[4] = in vivo
Method: as §1

[5] = tested on: bordetella avium; details: turkeys; route not stated; cited from earlier work
[6] = Volatilization of drugs with a vaporization vehicle; type: physicochemical; details: menthol as vaporization vehicle
From the text: The amount of vaporization vehicle depends on which drug is delivered. […] Other potential vaporization vehicles include carvone, menthone and camphor.

| Compound | Lungs: sulfamethazine level ([1]; 0.05 h) | concentration at 0.05 h ([1]; Lungs: sulfamethazine level) [ng/g] | Lungs: sulfamethazine level [2] [ppb] | concentration at 25 min [3] [ng/g] | sulfamethazine level in lung tissue, inhalation, immediate ([4]; 0 min) [ppm] | sulfamethazine level in lung tissue, oral ([4]; po) [ppm] | success at treating bordetella avium disease [5] | need for menthol for volatilization [6] |
| --- | --- | --- | --- | --- | --- | --- | --- | --- |
| Cc1cc(C)nc(NS(=O)(=O)c2ccc(N)cc2)n1 [sulfamethazine] | ~ 0.1 ppm | ~100 | 50 | 100 | 0.2 | 0.1 |  |  |
| Cc1cc(NS(=O)(=O)c2ccc(N)cc2)no1 [sulfamethoxazole] |  |  |  |  |  |  | successful at treating the disease |  |
| gentamicin |  |  |  |  |  |  | successful at treating the disease | can be volatilized with little or no menthol |
